# According to patent US20250145607A1, “Modulators of CAMKK2 as Ligand Directed Degraders” (Celgene Corporation, priority 2021, published 2025):
# Molecular target: T1, Enhanced ProLabel (ePL)-Tagged CAMKK2 (Homo sapiens, UniProt Q96RR4)
# T1 construct: expressed in transfected cells
# Assay: Degradation of stably expressed ePL-tagged CAMKK2 in 293T cells (InCELL Hunter luminescence, 24 h)
# Format: cell-based
# Conditions: minimum % protein remaining; ePL-CAMKK2 293T cells, 24 h incubation
# Method: Cells were dispensed into 384 well plates pre-spotted with serial diluted test compounds. After 24 h incubation, degradation was terminated by the addition of DiscoverX InCELL Hunter Detection reagent.
# Assay plates were incubated at 37° C. with 5% CO2 for 24 hours. Plates were kept at room temperature for 30 min, after which 25 μL of the InCELL Hunter Detection Reagent Working Solution was added (catalog number 96-0002, DiscoverX, Fremont, CA). After plates were incubated at room temperature for 30 min, protected from light, luminescence was read on a PHERAstar reader (BMG LABTECH, Cary, N.C.). Data was normalized and fit using Activity Base (IDBS, Alameda, Calif.) as described below.
# A Four Parameter Logistic Model (Sigmoidal Dose-Response Model, equation 1) was used to determine the compound's EC50 and degradation Ymin.
# where C is CAMKK2 degradation potency EC50, D is the […], A is the lower limit reported as Ymin. Ymin and EC50 were used to characterize compound-mediated CAMKK2 degradation efficiency.
# T1 sequence (Q96RR4 whole entry): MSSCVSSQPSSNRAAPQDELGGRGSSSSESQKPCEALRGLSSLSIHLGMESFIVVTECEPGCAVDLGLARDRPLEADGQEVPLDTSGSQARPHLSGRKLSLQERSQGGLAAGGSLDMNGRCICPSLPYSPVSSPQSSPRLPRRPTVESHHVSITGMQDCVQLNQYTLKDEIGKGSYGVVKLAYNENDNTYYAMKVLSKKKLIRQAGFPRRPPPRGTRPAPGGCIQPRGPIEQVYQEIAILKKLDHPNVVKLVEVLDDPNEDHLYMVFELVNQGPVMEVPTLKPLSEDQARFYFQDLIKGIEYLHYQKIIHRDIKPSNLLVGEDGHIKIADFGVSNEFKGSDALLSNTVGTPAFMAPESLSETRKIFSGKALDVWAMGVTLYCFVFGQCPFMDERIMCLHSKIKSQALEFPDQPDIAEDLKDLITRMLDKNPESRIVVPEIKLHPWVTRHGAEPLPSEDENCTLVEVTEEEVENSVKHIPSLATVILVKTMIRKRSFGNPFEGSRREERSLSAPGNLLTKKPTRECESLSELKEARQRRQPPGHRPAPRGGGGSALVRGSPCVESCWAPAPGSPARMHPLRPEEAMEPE
row,(ePL) HEK293 24 h CAMKK2 Ymin(%),Structure (SMILES)
1,37,"Cc1ncsc1-c1ccc(CNC(=O)[C@@H]2C[C@@H](O)CN2C(=O)[C@@H](NC(=O)CCCCCCCCCCOc2ccc3c(-c4ccc(C(=O)O)c(C5CCCC5)c4)ncnc3c2)C(C)(C)C)cc1 (racemic) [Compound 2, 2-cyclopentyl-4-[7-[11-oxo-11-[[rac-(1S)-2,2-dimethyl-1-[rac-(2S,4R)-4-hydroxy-2-[[4-(4-methylthiazol-5-yl)phenyl]methylcarbamoyl]pyrrolidine-1-carbonyl]propyl]amino]undecoxy]quinazolin-4-yl]benzoic acid]"
2,19,"Cc1ncsc1-c1ccc(CNC(=O)[C@@H]2C[C@@H](O)CN2C(=O)[C@@H](NC(=O)CCCCCCCCOc2ccc3c(-c4ccc(C(=O)O)c(C5CCCC5)c4)ncnc3c2)C(C)(C)C)cc1 [Compound 4, 2-cyclopentyl-4-[7-[9-[[(1S)-1-[(2S,4R)-4-hydroxy-2-[[4-(4-methylthiazol-5-yl)phenyl]methylcarbamoyl]pyrrolidine-1-carbonyl]-2,2-dimethyl-propyl]amino]-9-oxo-nonoxy]quinazolin-4-yl]benzoic acid]"
3,32,Cc1ncsc1-c1ccc(CNC(=O)[C@@H]2C[C@@H](O)CN2C(=O)[C@@H](NC(=O)CCCCCCCOc2ccc3c(-c4ccc(C(=O)O)c(C5CCCC5)c4)ncnc3c2)C(C)(C)C)cc1 [Compound 5]

# More lines, now with the values behind:
row,Structure (SMILES),(ePL) HEK293 24 h CAMKK2 Ymin(%)
1,"Cc1ncsc1-c1ccc(CNC(=O)[C@@H]2C[C@@H](O)CN2C(=O)[C@@H](NC(=O)CCCCCCOc2ccc3c(-c4ccc(C(=O)O)c(C5CCCC5)c4)ncnc3c2)C(C)(C)C)cc1 (racemic) [Compound 6, 2-cyclopentyl-4-[7-[7-oxo-7-[[rac-(1S)-2,2-dimethyl-1-[rac-(2S,4R)-4-hydroxy-2-[[4-(4-methylthiazol-5-yl)phenyl]methylcarbamoyl]pyrrolidine-1-carbonyl]propyl]amino]heptoxy]quinazolin-4-yl]benzoic acid]",42
2,"Cc1ncsc1-c1ccc(CNC(=O)[C@@H]2C[C@@H](O)CN2C(=O)[C@@H](NC(=O)CCCCCCCCCCCOc2ccc3c(-c4ccc(C(=O)O)c(C5CCCC5)c4)ncnc3c2)C(C)(C)C)cc1 [Compound 1, 2-cyclopentyl-4-[7-[12-[[(1S)-1-[(2S,4R)-4-hydroxy-2-[[4-(4-methylthiazol-5-yl)phenyl]methylcarbamoyl]pyrrolidine-1-carbonyl]-2,2-dimethyl-propyl]amino]-12-oxo-dodecoxy]quinazolin-4-yl]benzoic acid]",43
